This note sets out measurements from the NIST ThermoML archive (doi:10.1016/j.jct.2009.03.007).

A short description of data set [1]: molar enthalpy of vaporization or sublimation. The following applies: 298.15 K; Liquid; Calvet microcalorimetry.
The conditions of data set [2]: 298.15 K; Liquid; Calvet microcalorimetry.

Each structure is given as a SMILES string. Numbers after ± are expanded uncertainties.

As for `CCOC(=O)Cc1cccs1` [ethyl 2-thiopheneacetate], the molar enthalpy in data set [1] stood at 14.8 ± 0.621 kcal/mol. As to `CCOC(=O)c1cccs1` [ethyl 2-thiophenecarboxylate], the “molar enthalpy of vaporization” value in data set [2] is 13.5 ± 0.621 kcal/mol. On to `CCOC(=O)Cc1ccsc1` [ethyl 3-thiopheneacetate], for which, in data set [1], the molar enthalpy is 15.1 ± 0.621 kcal/mol. For the molecule `COC(=O)c1cccs1` [methyl 2-thiophenecarboxylate], the “molar enthalpy of vaporization” value in data set [2] came out at 13.8 ± 0.574 kcal/mol.
